In ChEMBL document CHEMBL5584322, “Nonpeptidic Irreversible Inhibitors of SARS-CoV-2 Main Protease with Potent Antiviral Activity” (J Med Chem, 2024):
Calls of active or inactive are those of the source. No cut-off for these calls is given here.

Assays:
[1] = target: T1, Replicase polyprotein 1ab (Severe acute respiratory syndrome coronavirus 2, UniProt P0DTD1); test: Inhibition of full-length SARS CoV-2 MPro expressed in Escherichia coli BL21(DE3) using Boc-Abu-Tle-Leu-Gln-AMC as substrate incubated for 10 mins by fluorescence based assay
[2] = Stability of compound in 1 mM GSH at 10 uM incubated for 1 hr by HPLC-ESI-MS analysis; assay type: ADME
[3] = Stability of compound in 1 mM GSH assessed as compound remaining at 100 uM incubated for 1 hr by HPLC-ESI-MS analysis; assay type: ADME; settings: 1 mM GSH solution, read-out: Stability
[4] = target: T1, Replicase polyprotein 1ab; test: Inhibition of SARS CoV-2 MPro
[5] = target: Replicase polyprotein 1ab (Severe acute respiratory syndrome coronavirus 2) (UniProt P0DTD1); test: Inhibition of His-tagged recombinant SARS CoV-2 MPro expressed in Escherichia coli BL21(DE3) using Boc-Abu-Tle-Leu-Gln-AMC as substrate at 1 uM incubated for shorter period by fluorescence based assay relative to control
[6] = test system: Severe acute respiratory syndrome-related coronavirus; test: Inhibition of SARS CoV-1 MPro using Boc-Abu-Tle-Leu-Gln-AMC as substrate incubated for 10 mins by fluorescence based assay
[7] = Stability of compound in 1 mM GSH at 100 uM incubated for 1 hr by HPLC-ESI-MS analysis; assay type: ADME
[8] = Stability of compound in 1 mM GSH assessed as compound remaining at 10 to 100 uM incubated for 1 hr by HPLC-ESI-MS analysis; assay type: ADME; settings: 1 mM GSH solution, dose 10-100 µM, read-out: Stability
SARS-CoV-2 = test: microbe, parasite or virus in culture; settings: Severe acute respiratory syndrome coronavirus 2, Calu-3
[9] = target: Replicase polyprotein 1ab (Severe acute respiratory syndrome coronavirus 2) (UniProt P0DTD1); test: Inhibition of His-tagged recombinant SARS CoV-2 MPro expressed in Escherichia coli BL21(DE3) using Boc-Abu-Tle-Leu-Gln-AMC as substrate at 1 uM incubated for >6 hrs by fluorescence based assay relative to control
Calu-3 [10] = test: Cytotoxicity against human Calu-3 cells at 10 uM; assay type: toxicity, cell-based; settings: calu-3, 10 µM
[11] = Inhibition of MERS CoV MPro using Boc-Abu-Tle-Leu-Gln-AMC as substrate incubated for 10 mins by fluorescence based assay; design: species or system Middle East respiratory syndrome-related coronavirus
Calu-3 [12] = test: (§1) Cytotoxicity against human Calu-3 cells; assay type: toxicity, cell-based; settings: calu-3, 10 µM, dose 10 µM
[13] = as §1; assay type: toxicity, cell-based; settings: Calu-3 cells
[14] = target: Replicase polyprotein 1ab (Severe acute respiratory syndrome coronavirus 2) (UniProt P0DTD1); test: Inhibition of full-length SARS CoV-2 MPro expressed in Escherichia coli BL21(DE3) using Boc-Abu-Tle-Leu-Gln-AMC as substrate at 1 uM incubated for 10 mins by fluorescence based assay relative to control

O=C(Oc1cncc(Cl)c1)c1ccc(-c2cccnc2)cc1
IC50 [1]: 137 nM

O=C(Oc1cncc(Cl)c1)c1cc2cc(Cl)ccc2[nH]1
Stability [2]: Unstable
remaining at 1 h, 100 µM [3]: > 70%

O=C(Oc1cncc(Cl)c1)c1cccc2[nH]ccc12
Stability [2]: Stable
remaining at 1 h, 100 µM [3]: > 70%

O=C(Oc1cncc(Cl)c1)c1cccs1
Ki [4]: 81.1 nM

O=C(Oc1cncc(Cl)c1)c1cccc(F)c1
IC50 [1]: 46.4 nM

O=C(Oc1cncc(Br)c1)c1cccc(Cl)c1
IC50 [1]: 50.5 nM

O=C(Oc1cncc(Cl)c1)c1ccc(Cl)cc1Cl
inhibition [5]: 100%
inhibition [6]: Active
IC50 [1]: 108 nM

O=C(Oc1cncc(Cl)c1)c1ccc(Cl)cc1F
inhibition [5]: 100%
inhibition [6]: inactive
IC50 [1]: 45.7 nM

CNc1ccc(C(=O)Oc2cncc(Cl)c2)cc1
Stability [7]: Stable
remaining at 1 h, up to 100 µM [8]: 50%
IC50 [1]: 3940 nM

CCOc1ccc(C(=O)Oc2cncc(Cl)c2)c(F)c1
EC50 (SARS-CoV-2): 2.68 nM
inhibition [6]: inactive
inhibition [9]: 100%
Activity (Calu-3 [10]): Non-Toxic
IC50 [1]: 47.4 nM

COc1cccc(C(=O)Oc2cncc(Cl)c2)c1OC
inhibition [6]: Active
inhibition [9]: 100%
IC50 [1]: 84.5 nM

O=C(Oc1cncc(Cl)c1)c1ccccc1
IC50 [1]: 40.4 nM

O=C(Oc1cncc(Cl)c1)c1ccc(Br)cc1F
inhibition [6]: inactive
IC50 [1]: 34.9 nM

CCOc1ccc(C(=O)Oc2cncc(Cl)c2)cc1
remaining at 1 h, up to 100 µM [8]: 50%
IC50 [1]: 329 nM

Cc1cc(Cl)ccc1C(=O)Oc1cncc(Cl)c1
IC50 [1]: 3400 nM

O=C(Oc1cncc(Cl)c1)c1ccc(I)cc1
inhibition [6]: inactive
Stability [2]: Unstable
IC50 [1]: 91.2 nM

O=C(Oc1cncc(Br)c1)c1ccc(Cl)c(Cl)c1
IC50 [1]: 37.5 nM

O=C(Oc1cncc(Br)c1)c1ccc(OCc2ccccc2)cc1F
inhibition [9]: 100%
IC50 [1]: 232 nM

O=C(Oc1cncc(Br)c1)c1ccc(Cl)cc1F
inhibition [5]: 100%
IC50 [1]: 35.6 nM

O=C(Oc1cncc(Cl)c1)c1c(F)cccc1F
inhibition [6]: inactive
IC50 [1]: 29.2 nM

O=C(Oc1cncc(Cl)c1)c1cccnc1
IC50 [1]: 758 nM

O=C(Oc1cncc(Br)c1)c1ccc(I)cc1F
Stability [7]: Stable
IC50 [1]: 33.5 nM

COc1ccc(C(=O)Oc2cncc(Cl)c2)c(OC)c1
Stability [7]: Stable
IC50 [1]: 1670 nM

O=C(Oc1cncc(Br)c1)c1ccc(Cl)cc1Cl
inhibition [5]: 100%
IC50 [1]: 84.5 nM

O=C(Oc1cncc(Cl)c1)c1ccncc1
IC50 [1]: 725 nM

O=C(Oc1cncc(Cl)c1)c1cc(F)cc(F)c1
IC50 [1]: 38.3 nM

O=C(Oc1cncc(Cl)c1)c1ccc(Cl)c(Cl)c1
inhibition [6]: Active
IC50 [1]: 96.4 nM

COc1c(Cl)ccc(C(=O)Oc2cncc(Cl)c2)c1F
IC50 [1]: 70.7 nM

COc1cccc(C(=O)Oc2cncc(Cl)c2)c1
inhibition [6]: Active
Stability [2]: Unstable
IC50 [11]: 112 nM
IC50 [1]: 5.13 nM

O=C(Oc1cncc(Cl)c1)c1ccc(-c2ccccc2)cc1
EC50 (SARS-CoV-2): 58.7 nM
inhibition [6]: inactive
Activity (Calu-3 [12]): Dose-Dependent Effect
CC50 [13]: 14700 nM
Stability [7]: Stable
remaining at 1 h, up to 100 µM [8]: 50%
IC50 [1]: 150 nM

O=C(Oc1cncc(Cl)c1)c1ccc(F)cc1
IC50 [1]: 119 nM

O=C(Oc1cncc(Cl)c1)c1ccc(I)cc1F
inhibition [6]: inactive
IC50 [1]: 14.9 nM

O=C(Oc1cncc(Cl)c1)c1ccccc1Cl
IC50 [1]: 60.4 nM

O=C(Oc1cncc(Cl)c1)c1ccc(OCc2ccccc2)cc1F
inhibition [6]: inactive
Stability [2]: Unstable
Stability [7]: Stable
inhibition [9]: 100%
IC50 [1]: 322 nM

O=C(Oc1cncc(Cl)c1)c1ccccc1F
inhibition [6]: Active
IC50 [1]: 25.9 nM

Nc1ccc(C(=O)Oc2cncc(Cl)c2)c(F)c1
Stability [7]: Stable
IC50 [1]: 943 nM

O=C(Oc1cncc(Cl)c1)c1cccc(Cl)c1Cl
inhibition [6]: Active
IC50 [1]: 126 nM

COc1cccc(C(=O)Oc2cncc(Br)c2)c1OC
inhibition [9]: 100%
IC50 [1]: 78.2 nM

COc1ccc(F)c(C(=O)Oc2cncc(Cl)c2)c1F
IC50 [1]: 30.3 nM

N#Cc1ccc(C(=O)Oc2cncc(Cl)c2)c(F)c1
IC50 [1]: 47 nM

CCCCCCCOc1ccc(C(=O)Oc2cncc(Cl)c2)cc1
Stability [7]: Stable
remaining at 1 h, up to 100 µM [8]: 50%
inhibition [14]: 8%
IC50 [1]: > 1000 nM

O=C(Oc1cncc(Cl)c1)c1ccccc1-c1ccccc1
Stability [2]: Unstable
Stability [7]: Stable
inhibition [14]: 6%
IC50 [1]: > 1000 nM

CCOc1ccc(C(=O)Oc2cncc(Br)c2)c(F)c1
Stability [2]: Unstable
inhibition [9]: 100%
IC50 [1]: 107 nM

O=C(Oc1cncc(Cl)c1)c1cc(Cl)cc(Cl)c1
IC50 [1]: 133 nM

COc1cccc(C(=O)Oc2cncc(Br)c2)c1
IC50 [1]: 19.9 nM

O=C(Oc1cncc(Cl)c1)c1ccc(Cl)cc1
IC50 [1]: 218 nM

CC(C)(C)[C@H](NC(=O)C(F)(F)F)C(=O)N1C[C@H]2[C@@H]([C@H]1C(=O)N[C@H](C#N)C[C@@H]1CCNC1=O)C2(C)C
Stability [2]: Stable
Stability [7]: Stable

COc1ccccc1C(=O)Oc1cncc(Cl)c1
inhibition [6]: inactive
IC50 [1]: 264 nM

COc1cc(F)ccc1C(=O)Oc1cncc(Cl)c1
IC50 [1]: 249 nM

COc1ccc(C(=O)Oc2cncc(Cl)c2)cc1Cl
Stability [2]: Unstable
Stability [7]: Stable
IC50 [1]: 247 nM

O=C(Oc1cncc(Br)c1)c1ccccc1Cl
IC50 [1]: 39.2 nM

O=C(Oc1cncc(Br)c1)c1ccccc1F
IC50 [1]: 10.7 nM

COc1ccc(C(=O)Oc2cncc(Cl)c2)cc1
EC50 (SARS-CoV-2): 10.8 nM
inhibition [6]: inactive
Stability [7]: Stable
inhibition [9]: 100%
remaining at 1 h, up to 100 µM [8]: 50%
Activity (Calu-3 [10]): Non-Toxic
IC50 [1]: 164 nM

O=C(Oc1cncc(Cl)c1)c1cccc(-c2ccccc2)c1
Stability [2]: Unstable
Stability [7]: Stable
IC50 [1]: 117 nM

N=C(N)Nc1ccc(C(=O)Oc2cncc(Cl)c2)cc1
IC50 [1]: 65.9 nM

O=C(Oc1cncc(Cl)c1)c1cccc(Cl)c1
IC50 [1]: 55.1 nM

COc1ccc(C(=O)Oc2cncc(Br)c2)cc1
EC50 (SARS-CoV-2): 1860 nM
Stability [7]: Stable
inhibition [9]: 100%
Activity (Calu-3 [10]): Non-Toxic
IC50 [1]: 96.3 nM

O=C(Oc1cncc(Br)c1)c1ccc(Cl)cc1
IC50 [1]: 95.7 nM

O=C(Oc1cncc(Br)c1)c1ccccc1
IC50 [1]: 40.5 nM
